In US20070248488A1, “METHOD AND APPARATUS FOR REDUCING MICROORGANISMS IN WATER” (VORTEX CORPORATION, priority 2006, published 2007):
Values joined by “and” are separate entries in the source; they are usually repeats but may differ in a detail not shown here. Equal entries are not always repeated.

Legend:
adenoviruses = settings: Ct value of 0.6 mg/L min, 5° C.; cited from earlier work
[1] = test system: heterotrophic plate count; settings: reduced from 960 cfu/mL; raw water source for drinking water plant; cited from earlier work
[2] = test system: Adenovirus 2 (ATCC# VR-846); test: Adenovirus inactivation in de-chlorinated tap water (TCID50 on PLC cells); format: cell-based; settings: Initial titer 1.33 × 10^6 TCID50/ml; 2 L/minute; UV approx. 48 mJ/cm^2; ozone about 0.08 mg/L
From the text: It was capable of processing 2 liters per minute of water. To study the effects of UV light only, the ozone generated by the apparatus was diverted away and not injected into the water stream. The UV dose (mJ/cm^2) was previously calibrated and found to be approximately 48 mJ/cm^2 as determined by MS-2 coliphagae biodosimetry. To study the effects of ozone only, the UW lamp was shrouded with a stainless steel sleeve to prevent any water from being exposed to the UW light from lamp 14. The ozone dose was measured in all cases to be about 0.08 mg/L. To study the combination of UV light with the ozone, the ozone was injected at the base of vessel 22 via a venturi as previously described.
Log Reductions in microorganisms were calculated as follows: Log 10 Reduction=Log10[Final titer]−Log10[Initial titer]
Adenovirus 2 (ATCC# VR-846) was obtained from the American Type Culture Collection. It was maintained on PLC (Primary Liver Carcinoma, ATCC# CRL-8024) cell line monolayers with MEM (Minimal essential Medium modified with Earle's salts) containing 2$ FBS (Fetal Bovine Serum) at an incubation temperature of 35° C. with 5% CO2. Viruses were purified by centrifugation (7756×g) to remove cell debris followed by polyethylene glycol (9% PEG, 0.5 mol/L NaCl) precipitation. […]

MS-2 coliphage = test: Ozone and UV disinfection of MS-2 phage in dechlorinated tap water; format: cell-based; settings: Ozone Level (OR) 400 mV, exposure time 5 min; UV Dose 0 mJ/cm^2; room temperature, pH 7.6; MS-2 3.3×10^7 pfu/mL
Experimental: Propagation and assay of MS-2 coliphage was performed in accordance with Thurston-Enriquez et al. (2003a). Expected UV inactivation was derived from the work of Thurston-Enriquez et al. (2003a).
Ozone was generated by a corona discharge generator and injected into 4 L of dechlorinated tap water at room temperature and pH 7.6. The water was raised and maintained to an Oxidation Reduction Potential (OR) of 400 mV. On addition of the MS-2 to a concentration of 3.3×10^7 pfu/mL, the OR was maintained at 400 mV for five minutes. At the five minute mark, samples were drawn for MS-2 assay and the water was pumped through a UV (low pressure, high output UV lamp 14) at two gallons per minute. The UV dose was calibrated and known to be 12 mJ/cm^2. Following UV treatment, samples were taken for MS-2 assay. A duplicate trial was performed.

[3] = test system: Naegleria fowleri (ATCC #30462) cysts; test: Test for destruction of Naegleria fowleri in de-chlorinated tap water (MPN viability); format: cell-based; settings: Initial titer 2.42 × 10^3 cysts/mL, 2 L/minute, UV approx. 48 mJ/cm^2, ozone about 0.08 mg/L

O=[O+][O-] [Ozone, ozone]
inactivation of adenoviruses (adenoviruses): more than 4 logs | heterotrophic plate count after ozone disinfection stage [1]: 680 cfu/mL | Final Titer [2]: 2.08 × 10^5 TCID50/ml | Log10 Reduction [2]: 0.81 | log Inactivation (MS-2 coliphage): 1 log and 1.06 log and 1.00 log | Final Titer [3]: 473 mL⁻¹ | Log10 Reduction [3]: .071 | Log10 Reduction ([3]; listed as ozone): 0.71
